Measured values from patent US10023558B2, “Compounds” (CHIESI FARMACEUTICI S.P.A., priority 2016, dated 2018).

Each compound was assayed against T1, human neutrophil elastase (HNE) (Homo sapiens, UniProt P08246) (assay: HNE Enzyme Assay (fluorogenic peptide substrate MeOSuc-Ala-Ala-Pro-Val-AMC)). Conditions: human leukocyte elastase 0.00072 U/mL, substrate 100 μM, 25° C., 30 minutes, at least two separate experiments; read-out: HNE inhibition (IC50 values).
T1 construct: purchased Sigma E8140
T1 sequence (P08246 30-247 limits assumed): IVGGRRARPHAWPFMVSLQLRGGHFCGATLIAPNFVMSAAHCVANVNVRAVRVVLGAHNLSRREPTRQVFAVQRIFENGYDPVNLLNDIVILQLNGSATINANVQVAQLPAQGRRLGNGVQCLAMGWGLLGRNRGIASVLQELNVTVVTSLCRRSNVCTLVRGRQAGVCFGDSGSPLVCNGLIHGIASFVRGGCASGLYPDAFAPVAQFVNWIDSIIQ
Assay type: biochemical
Description: Compounds of this invention were tested for potency in a human neutrophil elastase (HNE) enzyme activity assay.
Assays were performed in 96-well plates in a total assay volume of 100 μL. The final concentration of elastase enzyme (human leukocyte elastase, Sigma E8140) was 0.00072 U/mL. The peptide substrate (MeOSuc-Ala-Ala-Pro-Val-AMC, Calbiochem #324740) was used at a final concentration of 100 μM. The final concentration of DMSO was 1% in the assay buffer (0.05M Tris.HCl, 0.1M NaCl, 0.1M CaCl2, 0.0005% Brij-35, pH 7.5). The enzymatic reaction was started by addition of the enzyme and incubated at 25° C. for 30 minutes. After incubation, the reaction was stopped by addition of soybean trypsin inhibitor (Sigma T9003) at a final concentration of 50 μg/well. Fluorescence was measured using a Molecular Devices fluorescence plate reader using 380 nm excitation and 460 nm emission wavelengths.
A concentration response to each compound was performed and the effect of compound in each experiment was expressed as a percentage inhibition of the control enzyme fluorescence. Dose response curves were plotted and compound potency (IC50) was determined. Compounds were tested in at least two separate experiments.

IC50, < 1 nM:
Cc1c(-c2ccnn2-c2ccc(C#N)cc2)n(C(=O)NC2CCN(C(=O)C[N+](C)(C)C)CC2)c(=O)n1-c1cccc(C(F)(F)F)c1 [Example 61, [2-(4-{[5-[2-(4-Cyano-phenyl)-2H-pyrazol-3-yl]-4-methyl-2-oxo-3-(3-trifluoromethyl-phenyl)-2,3-dihydro-imidazole-1-carbonyl]-amino}-piperidin-1-yl)-2-oxo-ethyl]-trimethyl-ammonium benzene sulfonate]
Cc1c(-c2ccnn2-c2ccc(C#N)cc2)n(C(=O)N[C@@H](C)C(=O)N2CC[N+](C)(Cc3ccccc3)CC2)c(=O)n1-c1cccc(C(F)(F)F)c1 [Example 49, 1-Benzyl-4-((S)-2-{[5-[2-(4-cyano-phenyl)-2H-pyrazol-3-yl]-4-methyl-2-oxo-3-(3-trifluoromethyl-phenyl)-2,3-dihydro-imidazole-1-carbonyl]-amino}-propionyl)-1-methyl-piperazin-1-ium bromide]
Cc1c(-c2ccnn2-c2ccc(C#N)cc2)n(C(=O)N[C@H]2CC[N+](C)(C)C2)c(=O)n1-c1cccc(C(F)(F)F)c1 [Example 34, (S)-3-{[5-[2-(4-Cyano-phenyl)-2H-pyrazol-3-yl]-4-methyl-2-oxo-3-(3-trifluoromethyl-phenyl)-2,3-dihydro-imidazole-1-carbonyl]-amino}-1,1-dimethyl-pyrrolidinium benzenesulfonate]
Cc1c(-c2ccnn2-c2ccc(C#N)cc2)n(C(=O)N[C@H]2C[C@@H]3C[N+](C)(C)C[C@@H]3C2)c(=O)n1-c1cccc(C(F)(F)F)c1 [Example 56, (3aR,5S,6aS)-5-{[5-[2-(4-Cyano-phenyl)-2H-pyrazol-3-yl]-4-methyl-2-oxo-3-(3-trifluoromethyl-phenyl)-2,3-dihydro-imidazole-1-carbonyl]-amino}-2,2-dimethyl-octahydro-cyclopenta[c]pyrrolium benzene sulfonate]
Cc1c(-c2ccnn2-c2ccc(C#N)cc2)n(C(=O)N[C@H]2CC[C@H](C(=O)OCC[N+](C)(C)C)CC2)c(=O)n1-c1cccc(C(F)(F)F)c1 [Example 82, [2-(Trans-4-{[5-[2-(4-cyano-phenyl)-2H-pyrazol-3-yl]-4-methyl-2-oxo-3-(3-trifluoromethyl-phenyl)-2,3-dihydro-imidazole-1-carbonyl]-amino}-cyclohexanecarbonyloxy)-ethyl]-trimethyl-ammonium benzene sulfonate]
Cc1c(-c2ccnn2-c2ccc(C#N)cc2)n(C(=O)N[C@@H](C)C(=O)N(C)CC[N+](C)(C)C)c(=O)n1-c1cccc(C(F)(F)F)c1 [Example 71, {2-[((S)-2-{[5-[2-(4-Cyano-phenyl)-2H-pyrazol-3-yl]-4-methyl-2-oxo-3-(3-trifluoromethyl-phenyl)-2,3-dihydro-imidazole-1-carbonyl]-amino}-propionyl)-methyl-amino]-ethyl}-trimethyl-ammonium benzene sulfonate]
Cc1c(-c2ccnn2-c2ccc(C#N)cc2)n(C(=O)N[C@H](c2ncc(C[N+](C)(C)C)o2)C(C)C)c(=O)n1-c1cccc(C(F)(F)F)c1 [Example 73, [2-((S)-1-{[5-[2-(4-Cyano-phenyl)-2H-pyrazol-3-yl]-4-methyl-2-oxo-3-(3-trifluoromethyl-phenyl)-2,3-dihydro-imidazole-1-carbonyl]-amino}-2-methyl-propyl)-oxazol-5-ylmethyl]-trimethyl-ammonium benzene sulfonate]
Cc1c(-c2ccnn2-c2ccc(C#N)cc2)n(C(=O)NC2CCN(C(=O)CN(C)C)CC2)c(=O)n1-c1cccc(C(F)(F)F)c1 [Example 17, 5-[2-(4-Cyano-phenyl)-2H-pyrazol-3-yl]-4-methyl-2-oxo-3-(3-trifluoromethyl-phenyl)-2,3-dihydro-imidazole-1-carboxylic acid [1-(2-dimethylamino-acetyl)-piperidin-4-yl]-amide]
Cc1c(-c2ccnn2-c2ccc(C#N)cc2)n(C(=O)N[C@H]2CC[C@H](CN(C)C)CC2)c(=O)n1-c1cccc(C(F)(F)F)c1 [Example 1, 5-[2-(4-Cyano-phenyl)-2H-pyrazol-3-yl]-4-methyl-2-oxo-3-(3-trifluoromethyl-phenyl)-2,3-dihydro-imidazole-1-carboxylic acid trans-(4-dimethylaminomethyl-cyclohexyl)-amide]
Cc1c(-c2ccnn2-c2ccc(C#N)cc2)n(C(=O)NC2CCN(C(=O)C(F)(F)F)CC2)c(=O)n1-c1cccc(C(F)(F)F)c1 [Example 4, 5-[2-(4-Cyano-phenyl)-2H-pyrazol-3-yl]-4-methyl-2-oxo-3-(3-trifluoromethyl-phenyl)-2,3-dihydro-imidazole-1-carboxylic acid [1-(2,2,2-trifluoro-acetyl)-piperidin-4-yl]-amide]
Cc1c(-c2ccnn2-c2ccc(C#N)cc2)n(C(=O)N[C@@H]2C[C@@H]3C[N+](C)(C)C[C@@H]3C2)c(=O)n1-c1cccc(C(F)(F)F)c1 [Example 37, (3aS,5R,6aR)-5-{[5-[2-(4-Cyano-phenyl)-2H-pyrazol-3-yl]-4-methyl-2-oxo-3-(3-trifluoromethyl-phenyl)-2,3-dihydro-imidazole-1-carbonyl]-amino}-2,2-dimethyl-octahydro-cyclopenta[c]pyrrolium benzene sulfonate]
Cc1c(-c2ccnn2-c2ccc(C#N)cc2)n(C(=O)NC(C)c2nc(C[N+](C)(C)C)cs2)c(=O)n1-c1cccc(C(F)(F)F)c1 (racemic) [Example 85, ±[2-(1-{[5-[2-(4-Cyano-phenyl)-2H-pyrazol-3-yl]-4-methyl-2-oxo-3-(3-trifluoromethyl-phenyl)-2,3-dihydro-imidazole-1-carbonyl]-amino}-ethyl)-thiazol-4-ylmethyl]-trimethyl-ammonium benzene sulfonate]
Cc1c(-c2ccnn2-c2ccc(C#N)cc2)n(C(=O)N[C@H]2CC[C@H]([N+](C)(C)C)CC2)c(=O)n1-c1cccc(C(F)(F)F)c1 [Example 41, (Trans-4-{[5-[2-(4-cyano-phenyl)-2H-pyrazol-3-yl]-4-methyl-2-oxo-3-(3-trifluoromethyl-phenyl)-2,3-dihydro-imidazole-1-carbonyl]-amino}-cyclohexyl)-trimethyl-ammonium benzene sulfonate]
Cc1c(-c2ccnn2-c2ccc(C#N)cc2)n(C(=O)N[C@@H](C)c2cc[n+](C)cc2)c(=O)n1-c1cccc(C(F)(F)F)c1 [Example 38, 4-((S)-1-{[5-[2-(4-Cyano-phenyl)-2H-pyrazol-3-yl]-4-methyl-2-oxo-3-(3-trifluoromethyl-phenyl)-2,3-dihydro-imidazole-1-carbonyl]-amino}-ethyl)-1-methyl-pyridinium benzene sulfonate]
Cc1c(-c2ccnn2-c2ccc(C#N)cc2)n(C(=O)NC2(c3ncc(C[N+](C)(C)C)o3)CC2)c(=O)n1-c1cccc(C(F)(F)F)c1 [Example 79, [2-(1-{[5-[2-(4-Cyano-phenyl)-2H-pyrazol-3-yl]-4-methyl-2-oxo-3-(3-trifluoromethyl-phenyl)-2,3-dihydro-imidazole-1-carbonyl]-amino}-cyclopropyl)-oxazol-5-ylmethyl]-trimethyl-ammonium benzene sulfonate]
Cc1c(-c2ccnn2-c2ccc(C#N)cc2)n(C(=O)N[C@@H](C)c2nnc(C[N+](C)(C)C)o2)c(=O)n1-c1cccc(C(F)(F)F)c1 [Example 63, [5-((S)-1-{[5-[2-(4-Cyano-phenyl)-2H-pyrazol-3-yl]-4-methyl-2-oxo-3-(3-trifluoromethyl-phenyl)-2,3-dihydro-imidazole-1-carbonyl]-amino}-ethyl)-[1,3,4]oxadiazol-2-ylmethyl]-trimethyl-ammonium benzene sulfonate]
Cc1c(-c2ccnn2-c2ccc(C#N)cc2)n(C(=O)N[C@H](c2ncc(CN(C)C)o2)C(C)C)c(=O)n1-c1cccc(C(F)(F)F)c1 [Example 21, 5-[2-(4-Cyano-phenyl)-2H-pyrazol-3-yl]-4-methyl-2-oxo-3-(3-trifluoromethyl-phenyl)-2,3-dihydro-imidazole-1-carboxylic acid [(S)-1-(5-dimethylaminomethyl-oxazol-2-yl)-2-methyl-propyl]-amide]
Cc1c(-c2ccnn2-c2ccc(C#N)cc2)n(C(=O)NC2CCN(C(=O)CCN(C)C)CC2)c(=O)n1-c1cccc(C(F)(F)F)c1 [Example 15, 5-[2-(4-Cyano-phenyl)-2H-pyrazol-3-yl]-4-methyl-2-oxo-3-(3-trifluoromethyl-phenyl)-2,3-dihydro-imidazole-1-carboxylic acid [1-(3-dimethylamino-propionyl)-piperidin-4-yl]-amide]
CC[n+]1ccc([C@H](C)NC(=O)n2c(-c3ccnn3-c3ccc(C#N)cc3)c(C)n(-c3cccc(C(F)(F)F)c3)c2=O)cc1 [Example 42, 4-((S)-1-{[5-[2-(4-Cyano-phenyl)-2H-pyrazol-3-yl]-4-methyl-2-oxo-3-(3-trifluoromethyl-phenyl)-2,3-dihydro-imidazole-1-carbonyl]-amino}-ethyl)-1-ethyl-pyridinium benzene sulfonate]
